Bounds are passed on as bounds.

Casein kinase 1 epsilon (CSKN1E), sequence (P49674 whole entry): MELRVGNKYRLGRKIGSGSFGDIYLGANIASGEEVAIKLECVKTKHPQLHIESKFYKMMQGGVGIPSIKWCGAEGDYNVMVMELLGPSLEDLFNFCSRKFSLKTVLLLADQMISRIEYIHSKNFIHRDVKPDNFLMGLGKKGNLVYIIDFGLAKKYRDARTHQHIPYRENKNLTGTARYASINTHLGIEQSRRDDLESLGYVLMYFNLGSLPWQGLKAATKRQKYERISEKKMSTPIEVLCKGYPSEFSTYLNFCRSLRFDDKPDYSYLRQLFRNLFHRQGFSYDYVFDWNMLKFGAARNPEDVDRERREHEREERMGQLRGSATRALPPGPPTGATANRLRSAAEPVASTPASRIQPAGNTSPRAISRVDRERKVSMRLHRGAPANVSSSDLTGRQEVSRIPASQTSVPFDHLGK

The target of one assay is Casein kinase 1 delta (CSKN1D) (Homo sapiens, UniProt P48730). Description: Casein kinase assay, CK1 delta. Format: biochemical. Particulars: recombinant CSKN1D 5 nM, ATP 10 μM. How it is done: (§1) The recombinant protein Casein kinase 1 delta (CSKN1D) was added to the substrate solution in a concentration of 5 nM and gently mixed. Dilution series in of compounds of the present invention in DMSO were added to the reaction mixture, followed after 20 min by addition of a mixture of ATP and ^33P-ATP (specific activity 0.01 μCi/μl final) to a final concentration of 10 μM. Reactions were carried out at 25° C. for 120 min, followed by spotting the reactions onto P81 ion exchange filter paper. Unbound phosphate was removed by washing of the filters in 0.75% phosphoric acid. […] IC50 values and curve fits were obtained using the program Prism® (Graph Pad Software).
Casein kinase 1 delta (CSKN1D), sequence (P48730 whole entry): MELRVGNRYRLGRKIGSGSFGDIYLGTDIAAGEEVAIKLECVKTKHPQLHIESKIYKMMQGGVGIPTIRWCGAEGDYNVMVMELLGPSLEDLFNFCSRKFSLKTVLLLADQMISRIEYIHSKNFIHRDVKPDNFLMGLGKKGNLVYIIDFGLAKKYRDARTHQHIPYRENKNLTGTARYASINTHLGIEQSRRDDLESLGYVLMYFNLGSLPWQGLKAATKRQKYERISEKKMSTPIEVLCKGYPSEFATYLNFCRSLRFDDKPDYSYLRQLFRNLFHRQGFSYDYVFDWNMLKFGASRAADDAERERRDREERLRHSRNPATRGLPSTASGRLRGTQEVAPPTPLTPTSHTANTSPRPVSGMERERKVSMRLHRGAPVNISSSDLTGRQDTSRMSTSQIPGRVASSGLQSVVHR
The term IC50 denotes the midpoint of a concentration-inhibition curve. As to `O=C(Nc1nc2cc3c(cc2[nH]1)OC(F)(F)O3)c1csc(-c2ccccc2)n1` [Compound 4, N-(2,2-difluoro-5H-[1,3]dioxolo[4′,5′:4,5]benzo[1,2-d]imidazol-6-yl)-2-phenylthiazole-4-carboxamide], the IC50 is 200 to 1000 nM.
On the same count and under the same terms, the result for `O=C(Nc1nc2cc3c(cc2[nH]1)OC(F)(F)O3)c1csc(-c2ccc(C(F)(F)F)cc2)n1` [Compound 5, N-(2,2-difluoro-5H-[1,3]dioxolo[4′,5′:4,5]benzo[1,2-d]imidazol-6-yl)-2-(4-(trifluoromethyl)phenyl)thiazole-4-carboxamide] reads greater than 1000 nM; that for `O=C(Nc1nc2cc3c(cc2[nH]1)OC(F)(F)O3)c1csc(-c2cccc(Cl)c2Cl)n1` [Compound 6, 2-(2,3-dichlorophenyl)-N-(2,2-difluoro-5H-[1,3]dioxolo[4′,5′:4,5]benzo[1,2-d]imidazol-6-yl)thiazole-4-carboxamide], greater than 1000 nM.
Same read-out and setting: the result for `O=C(Nc1nc(C(=O)Nc2nc3cc4c(cc3[nH]2)OC(F)(F)O4)cs1)c1ccc(Cl)cc1` [Compound 8, 2-(4-chlorobenzamido)-N-(2,2-difluoro-5H-[1,3]dioxolo[4′,5′:4,5]benzo[1,2-d]imidazol-6-yl)thiazole-4-carboxamide] reads 200 to 1000 nM; that for `NS(=O)(=O)c1cccc(C(=O)Nc2nc3cc4c(cc3[nH]2)OC(F)(F)O4)c1` [Compound 100, N-(2,2-difluoro-5H-[1,3]dioxolo[4′,5′:4,5]benzo[1,2-d]imidazol-6-yl)-3-sulfamoylbenzamide], less than 200 nM.
Same read-out and setting: the same measure for `NS(=O)(=O)c1c[nH]c(C(=O)Nc2nc3cc4c(cc3[nH]2)OC(F)(F)O4)c1` [Compound 101, N-(2,2-difluoro-5H-[1,3]dioxolo[4′,5′:4,5]benzo[1,2-d]imidazol-6-yl)-4-sulfamoyl-1H-pyrrole-2-carboxamide]: less than 200 nM; for `O=C(Nc1nc2cc3c(cc2[nH]1)OC(F)(F)O3)c1c[nH]cn1` [Compound 103, N-(2,2-difluoro-5H-[1,3]dioxolo[4′,5′:4,5]benzo[1,2-d]imidazol-6-yl)-1H-imidazole-4-carboxamide]: 200 to 1000 nM; for `COC(=O)c1cccc(C(=O)Nc2nc3cc4c(cc3[nH]2)OC(F)(F)O4)c1` [Compound 105, methyl 3-((2,2-difluoro-5H-[1,3]dioxolo[4′,5′:4,5]benzo[1,2-d]imidazol-6-yl)carbamoyl)benzoate]: less than 200 nM.
As to `O=C(Nc1nc2cc3c(cc2[nH]1)OC(F)(F)O3)c1ccc(Cl)cc1` [Compound 106, 4-chloro-N-(2,2-difluoro-5H-[1,3]dioxolo[4′,5′:4,5]benzo[1,2-d]imidazol-6-yl)benzamide], the IC50 is greater than 1000 nM.
As for `Cc1ccc(C(=O)Nc2nc3cc4c(cc3[nH]2)OC(F)(F)O4)cc1` [Compound 107, N-(2,2-difluoro-5H-[1,3]dioxolo[4′,5′:4,5]benzo[1,2-d]imidazol-6-yl)-4-methylbenzamide], the IC50 was greater than 1000 nM.
Same read-out and setting: the result for `CS(=O)(=O)Nc1cccc(C(=O)Nc2nc3cc4c(cc3[nH]2)OC(F)(F)O4)c1` [Compound 108, N-(2,2-difluoro-5H-[1,3]dioxolo[4′,5′:4,5]benzo[1,2-d]imidazol-6-yl)-3-(methylsulfonamido)benzamide] reads less than 200 nM; that for `O=C(Nc1nc2cc3c(cc2[nH]1)OC(F)(F)O3)c1ccc(Cl)c(Cl)c1` [Compound 109, 3,4-dichloro-N-(2,2-difluoro-5H-[1,3]dioxolo[4′,5′:4,5]benzo[1,2-d]imidazol-6-yl)benzamide], 200 to 1000 nM; that for `Nc1ccc(C(=O)Nc2nc3cc4c(cc3[nH]2)OC(F)(F)O4)cn1` [Compound 110, 6-amino-N-(2,2-difluoro-5H-[1,3]dioxolo[4′,5′:4,5]benzo[1,2-d]imidazol-6-yl)nicotinamide], 200 to 1000 nM.
As to `NS(=O)(=O)c1ccc(C(=O)Nc2nc3cc4c(cc3[nH]2)OC(F)(F)O4)cn1` [Compound 112, N-(2,2-difluoro-5H-[1,3]dioxolo[4′,5′:4,5]benzo[1,2-d]imidazol-6-yl)-6-sulfamoylnicotinamide], the IC50 is less than 200 nM.
Still for that read-out and setting: the result for `O=C(Nc1nc2cc3c(cc2[nH]1)OC(F)(F)O3)c1cccc(O)c1` [Compound 113, N-(2,2-difluoro-5H-[1,3]dioxolo[4′,5′:4,5]benzo[1,2-d]imidazol-6-yl)-3-hydroxybenzamide] reads less than 200 nM; that for `CC(=O)c1cccc(C(=O)Nc2nc3cc4c(cc3[nH]2)OC(F)(F)O4)c1` [Compound 114, 3-acetyl-N-(2,2-difluoro-5H-[1,3]dioxolo[4′,5′:4,5]benzo[1,2-d]imidazol-6-yl)benzamide], less than 200 nM; that for `CC(C)(C)c1ccc(C(=O)Nc2nc3cc4c(cc3[nH]2)OC(F)(F)O4)cc1` [Compound 115, 4-(tert-butyl)-N-(2,2-difluoro-5H-[1,3]dioxolo[4′,5′:4,5]benzo[1,2-d]imidazol-6-yl)benzamide], 200 to 1000 nM.
The same measure, in the same setting: the same measure for `N#Cc1cccc(C(=O)Nc2nc3cc4c(cc3[nH]2)OC(F)(F)O4)c1` [Compound 116, 3-cyano-N-(2,2-difluoro-5H-[1,3]dioxolo[4′,5′:4,5]benzo[1,2-d]imidazol-6-yl)benzamide]: less than 200 nM; for `O=C(Nc1nc2cc3c(cc2[nH]1)OC(F)(F)O3)c1cccc(-c2nnn[nH]2)c1` [Compound 118, N-(2,2-difluoro-5H-[1,3]dioxolo[4′,5′:4,5]benzo[1,2-d]imidazol-6-yl)-3-(1H-tetrazol-5-yl)benzamide]: less than 200 nM.
On the same count and under the same terms, the result for `O=C(Nc1nc2cc3c(cc2[nH]1)OC(F)(F)O3)c1ccc(F)cc1` [Compound 119, N-(2,2-difluoro-5H-[1,3]dioxolo[4′,5′:4,5]benzo[1,2-d]imidazol-6-yl)-4-fluorobenzamide] reads 200 to 1000 nM; that for `O=C(Nc1nc2cc3c(cc2[nH]1)OC(F)(F)O3)c1cccc(OC(F)(F)F)c1` [Compound 120, N-(2,2-difluoro-5H-[1,3]dioxolo[4′,5′:4,5]benzo[1,2-d]imidazol-6-yl)-3-(trifluoromethoxy)benzamide], 200 to 1000 nM; that for `O=C(Nc1nc2cc3c(cc2[nH]1)OC(F)(F)O3)c1cccc(OC(F)F)c1` [Compound 121, N-(2,2-difluoro-5H-[1,3]dioxolo[4′,5′:4,5]benzo[1,2-d]imidazol-6-yl)-3-(difluoromethoxy)benzamide], less than 200 nM.
`COc1cncc(C(=O)Nc2nc3cc4c(cc3[nH]2)OC(F)(F)O4)c1` [Compound 123, N-(2,2-difluoro-5H-[1,3]dioxolo[4′,5′:4,5]benzo[1,2-d]imidazol-6-yl)-5-methoxynicotinamide]: the IC50 was less than 200 nM.
The same measure, in the same setting: the result for `COc1cc(C(=O)Nc2nc3cc4c(cc3[nH]2)OC(F)(F)O4)ccn1` [Compound 124, N-(2,2-difluoro-5H-[1,3]dioxolo[4′,5′:4,5]benzo[1,2-d]imidazol-6-yl)-2-methoxyisonicotinamide] reads less than 200 nM.
`Nc1ccc(C(=O)Nc2nc3cc4c(cc3[nH]2)OC(F)(F)O4)cc1C(F)(F)F` [Compound 126, 4-amino-N-(2,2-difluoro-5H-[1,3]dioxolo[4′,5′:4,5]benzo[1,2-d]imidazol-6-yl)-3-(trifluoromethyl)benzamide]: the IC50 was less than 200 nM.
The same measure, in the same setting: the same measure for `Nc1ccc(C(=O)Nc2nc3cc4c(cc3[nH]2)OC(F)(F)O4)cc1F` [Compound 127, 4-amino-N-(2,2-difluoro-5H-[1,3]dioxolo[4′,5′:4,5]benzo[1,2-d]imidazol-6-yl)-3-fluorobenzamide]: 200 to 1000 nM.
Same read-out and setting: the result for `O=C(Nc1nc2cc3c(cc2[nH]1)OC(F)(F)O3)c1cccc(N2CCCCC2)c1` [Compound 128, N-(2,2-difluoro-5H-[1,3]dioxolo[4′,5′:4,5]benzo[1,2-d]imidazol-6-yl)-3-(piperidin-1-yl)benzamide] reads less than 200 nM; that for `CC(C)c1nc(-c2cccc(C(=O)Nc3nc4cc5c(cc4[nH]3)OC(F)(F)O5)c2)no1` [Compound 131, N-(2,2-difluoro-5H-[1,3]dioxolo[4′,5′:4,5]benzo[1,2-d]imidazol-6-yl)-3-(5-isopropyl-1,2,4-oxadiazol-3-yl)benzamide], less than 200 nM; that for `CC(C)(C)c1nc(-c2cccc(C(=O)Nc3nc4cc5c(cc4[nH]3)OC(F)(F)O5)c2)no1` [Compound 132, 3-(5-(tert-butyl)-1,2,4-oxadiazol-3-yl)-N-(2,2-difluoro-5H-[1,3]dioxolo[4′,5′:4,5]benzo[1,2-d]imidazol-6-yl)benzamide], less than 200 nM.
On the same count and under the same terms, the result for `CCOC(=O)c1cc(C)n(-c2cccc(C(=O)Nc3nc4cc5c(cc4[nH]3)OC(F)(F)O5)c2)c1C` [Compound 139, ethyl 1-(3-((2,2-difluoro-5H-[1,3]dioxolo[4′,5′:4,5]benzo[1,2-d]imidazol-6-yl)carbamoyl)phenyl)-2,5-dimethyl-1H-pyrrole-3-carboxylate] reads less than 200 nM; that for `Cc1cc(C(=O)Nc2nc3cc4c(cc3[nH]2)OC(F)(F)O4)no1` [Compound 145, N-(2,2-difluoro-5H-[1,3]dioxolo[4′,5′:4,5]benzo[1,2-d]imidazol-6-yl)-5-methylisoxazole-3-carboxamide], greater than 1000 nM; that for `Cc1cc(C(=O)Nc2nc3cc4c(cc3[nH]2)OC(F)(F)O4)nn1C` [Compound 146, N-(2,2-difluoro-5H-[1,3]dioxolo[4′,5′:4,5]benzo[1,2-d]imidazol-6-yl)-1,5-dimethyl-1H-pyrazole-3-carboxamide], greater than 1000 nM.

For the next assay, the target named is Casein kinase 1 epsilon (CSKN1E) (Homo sapiens, UniProt P49674). Put plainly: Casein kinase assay, CK1 epsilon. Particulars: recombinant CSKN1E 30 nM, ATP 10 μM. Format: biochemical. How it is done:
as §1
The above assay was also used to determine the inhibitory capacity of the compounds of the present invention on Casein Kinase 1 epsilon, wherein instead of CSKN1D, recombinant protein Casein kinase 1 epsilon (CSKN1E) was added to the substrate solution in a concentration of 30 nM and gently mixed.
As for `O=C(Nc1nc2cc3c(cc2[nH]1)OC(F)(F)O3)c1csc(-c2ccccc2)n1` [Compound 4, N-(2,2-difluoro-5H-[1,3]dioxolo[4′,5′:4,5]benzo[1,2-d]imidazol-6-yl)-2-phenylthiazole-4-carboxamide], the IC50 lay in the range of 200 to 1000 nM.
Same read-out and setting: the result for `O=C(Nc1nc2cc3c(cc2[nH]1)OC(F)(F)O3)c1csc(-c2ccc(C(F)(F)F)cc2)n1` [Compound 5, N-(2,2-difluoro-5H-[1,3]dioxolo[4′,5′:4,5]benzo[1,2-d]imidazol-6-yl)-2-(4-(trifluoromethyl)phenyl)thiazole-4-carboxamide] reads greater than 1000 nM.
`O=C(Nc1nc2cc3c(cc2[nH]1)OC(F)(F)O3)c1csc(-c2cccc(Cl)c2Cl)n1` [Compound 6, 2-(2,3-dichlorophenyl)-N-(2,2-difluoro-5H-[1,3]dioxolo[4′,5′:4,5]benzo[1,2-d]imidazol-6-yl)thiazole-4-carboxamide]: the half-maximal inhibitory concentration (IC50) is greater than 1000 nM.
Turning to `O=C(Nc1nc(C(=O)Nc2nc3cc4c(cc3[nH]2)OC(F)(F)O4)cs1)c1ccc(Cl)cc1` [Compound 8, 2-(4-chlorobenzamido)-N-(2,2-difluoro-5H-[1,3]dioxolo[4′,5′:4,5]benzo[1,2-d]imidazol-6-yl)thiazole-4-carboxamide], the 50% inhibitory concentration (IC50) lay within 200 to 1000 nM.

The record behind these values is patent publication US20170240556A1, “BIFLUORODIOXALANE-AMINO-BENZIMIDAZOLE KINASE INHIBITORS FOR THE TREATMENT OF CANCER, AUTOIMMUNEINFLAMMATION AND CNS DISORDERS” (4SC DISCOVERY GMBH, priority 2012, published 2017).
